Measurements: the NIST ThermoML archive (doi:10.1016/j.jct.2015.05.019)
± gives the expanded uncertainty stated by the source.

How the values were obtained:
[1] = Crystal; DTA
[2] = Molar enthalpy of transition or fusion; conditions: Crystal; DSC

O=c1c(-c2ccc(O)cc2)coc2cc(O[C@@H]3O[C@H](CO)[C@@H](O)[C@H](O)[C@H]3O)cc(O)c12 [genistin]
Normal melting temperature [1]: 274.32 ± 0.5 °C
Molar enthalpy of transition or fusion [2]: 15.7 ± 3.11 kcal/mol
